Assay results from PubChem BioAssay (NCI).
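Following 48 hours of exposure in 96-well plates, responses at five concentrations were used to interpolate endpoints linearly. At the TGI there is no net growth.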

Assays:
Assay in all cases: DTP human tumour cell line panel, 48 h
[1] = tested on: 786-0 renal
[2] = tested on: A498 renal
[3] = tested on: A549 NSCLC
[4] = tested on: ACHN renal
[5] = tested on: CAKI-1 renal
[6] = tested on: CCRF-CEM leukemia
[7] = tested on: DLD-1 colon
[8] = tested on: DMS 114 small cell lung
[9] = tested on: DMS 273 small cell lung
[10] = tested on: EKVX NSCLC
[11] = tested on: HCC-2998 colon
[12] = tested on: HCT-116 colon
[13] = tested on: HCT-15 colon
[14] = tested on: HL-60(TB) leukemia
[15] = tested on: HOP-92 NSCLC
[16] = tested on: HT29 colon
[17] = tested on: IGROV1 ovarian
[18] = tested on: K-562 leukemia
[19] = tested on: KM20L2 colon
[20] = tested on: LOX IMVI melanoma
[21] = tested on: LXFL 529 NSCLC
[22] = tested on: M14 melanoma
[23] = tested on: M19-MEL melanoma
[24] = tested on: MALME-3M melanoma
[25] = tested on: MOLT-4 leukemia
[26] = tested on: NCI-H226 lung
[27] = tested on: NCI-H23 lung
[28] = tested on: NCI-H460 lung
[29] = tested on: NCI-H522 lung
[30] = tested on: OVCAR-3 ovarian
[31] = tested on: OVCAR-4 ovarian
[32] = tested on: OVCAR-5 ovarian
[33] = tested on: OVCAR-8 ovarian
[34] = tested on: RPMI-8226 leukemia
[35] = tested on: RXF 393 renal
[36] = tested on: RXF-631 renal
[37] = tested on: SF-268 CNS
[38] = tested on: SF-295 CNS
[39] = tested on: SF-539 CNS
[40] = tested on: SK-MEL-2 melanoma
[41] = tested on: SK-MEL-28 melanoma
[42] = tested on: SK-MEL-5 melanoma
[43] = tested on: SN12C renal
[44] = tested on: SNB-19 CNS
[45] = tested on: SNB-75 CNS
[46] = tested on: SNB-78 CNS
[47] = tested on: SR leukemia
[48] = tested on: SW-620 colon
[49] = tested on: TK-10 renal
[50] = tested on: U251 CNS
[51] = tested on: UACC-257 melanoma
[52] = tested on: UACC-62 melanoma
[53] = tested on: UO-31 renal
[54] = tested on: XF 498 CNS
[55] = tested on: COLO 205 colon
[56] = tested on: KM12 colon
[57] = tested on: SK-OV-3 ovarian
[58] = tested on: HOP-18 NSCLC
[59] = tested on: HOP-62 NSCLC
[60] = tested on: BT-549 breast
[61] = tested on: DU-145 prostate
[62] = tested on: HS 578T breast
[63] = tested on: MCF7 breast
[64] = tested on: MDA-MB-435
[65] = tested on: MDA-N
[66] = tested on: NCI/ADR-RES ovarian
[67] = tested on: PC-3 prostate
[68] = tested on: T-47D breast

Measured: TGI

O=c1/c(=C/c2ccccc2F)sc2nc3ccccc3n12
> 100 µM: [1] | [2] | [3] | [4] | [5] | [6] | [7] | [8] | [9] | [10] | [11] | [12] | [13] | [14] | [15] | [16] | [17] | [18] | [19] | [20] | [21] | [22] | [23] | [24] | [25] | [26] | [27] | [28] | [29] | [30] | [31] | [32] | [33] | [34] | [35] | [36] | [37] | [38] | [39] | [40] | [41] | [42] | [43] | [44] | [45] | [46] | [47] | [48] | [49] | [50] | [51] | [52] | [53] | [54]

CCN(CC)CSc1nc2ccccc2s1
> 100 µM: [3] | [5] | [6] | [55] | [8] | [9] | [10] | [11] | [13] | [14] | [15] | [16] | [17] | [18] | [56] | [20] | [21] | [22] | [23] | [25] | [26] | [27] | [29] | [30] | [31] | [33] | [34] | [39] | [41] | [42] | [57] | [43] | [45] | [46] | [48] | [49] | [51] | [52] | [54]

C[C@H](OCc1ccccc1)C(=O)N1CCS(=O)(=O)N2CCC[C@H]2C1=O
> 100 µM: [1] | [2] | [3] | [4] | [5] | [6] | [55] | [7] | [8] | [10] | [11] | [12] | [13] | [14] | [58] | [59] | [15] | [16] | [17] | [18] | [56] | [19] | [20] | [21] | [22] | [23] | [24] | [25] | [26] | [27] | [28] | [29] | [30] | [31] | [32] | [33] | [34] | [35] | [36] | [37] | [38] | [39] | [41] | [42] | [57] | [43] | [44] | [45] | [46] | [47] | [48] | [49] | [50] | [51] | [52] | [53]

COc1ccc2nc(-c3cccs3)cc(C(O)CN3CCSCC3)c2c1 (stereo not given)
36 µM: [40]
93.7 µM: [48]
74.2 µM: [56]
45.3 µM: [29]
40 µM: [9]
45.1 µM: [28]
59.8 µM: [32]
45.9 µM: [4]
37.6 µM: [42]
65.8 µM: [59]
51.3 µM: [39]
50.2 µM: [50]
44.9 µM: [6]
55.4 µM: [27]
45.5 µM: [19]
58.9 µM: [11]
63.7 µM: [51]
32.1 µM: [54]
38.6 µM: [52]
87.7 µM: [43]
78.7 µM: [45]
57.8 µM: [13] | [33]
> 100 µM: [3] | [5] | [7] | [17] | [30] | [31] | [35] | [37] | [38] | [57] | [44]
46.2 µM: [1]
91.8 µM: [21] | [49]
43 µM: [34]
34.4 µM: [20]
97.1 µM: [10]
60.8 µM: [53]
40.6 µM: [22]
54.7 µM: [58]
53.7 µM: [55]
62.1 µM: [15]
51.5 µM: [18]
35 µM: [24]
74 µM: [16]
38.7 µM: [8]
56.3 µM: [25]
58.6 µM: [23]
77.4 µM: [41]
5.8 µM: [14]

C=CC/C=C/Cc1csc(C(C)(C)C(O)C/C=C/C(=C)CCNC(=O)OC)n1 (stereo not given)
> 81.5 µM: [18]
> 83.8 µM: [45]
> 79.4 µM: [14]
> 60.5 µM: [42]
> 46.4 µM: [48]
2.91 µM: [8]
> 100 µM: [1] | [2] | [3] | [4] | [60] | [5] | [6] | [55] | [7] | [9] | [61] | [10] | [11] | [12] | [13] | [59] | [15] | [62] | [16] | [17] | [56] | [19] | [20] | [21] | [22] | [23] | [24] | [63] | [64] | [65] | [25] | [26] | [27] | [28] | [29] | [66] | [30] | [31] | [32] | [33] | [67] | [34] | [35] | [37] | [38] | [39] | [40] | [41] | [57] | [43] | [44] | [47] | [68] | [49] | [50] | [51] | [52] | [53] | [54]

Cc1c(C(=O)C/C(=N\O)C(=O)Nc2cc(Cl)c(Cl)cc2Cl)[n+](=O)c2ccccc2n1[O-]
> 100 µM: [1] | [3] | [5] | [6] | [14] | [59] | [16] | [18] | [57] | [44] | [45] | [46]
5.1 µM: [23]
30.8 µM: [21]
34.8 µM: [40]
32.7 µM: [39]
40.7 µM: [33]
67.5 µM: [4]
17 µM: [12]
56.2 µM: [2]
46.8 µM: [54]
20.2 µM: [51]
75.7 µM: [37]
39.4 µM: [31]
23.5 µM: [11] | [13]
21.1 µM: [24]
52.1 µM: [41]
26.2 µM: [56]
78.2 µM: [53]
38.4 µM: [34]
35.2 µM: [28]
38 µM: [9]
18.9 µM: [43]
15.9 µM: [22]
68.8 µM: [35]
16.2 µM: [29]
16.5 µM: [52]
84.4 µM: [47]
20.9 µM: [17] | [42]
31.3 µM: [50]
41.4 µM: [19]
12.6 µM: [55]
39.6 µM: [32]
7.52 µM: [30]
32.8 µM: [25]
19.9 µM: [8]
65.6 µM: [27]
43.6 µM: [10] | [20]
81.8 µM: [7]
37.5 µM: [26]
9.74 µM: [48]
72.2 µM: [49]
46.2 µM: [15]
82.4 µM: [58]
53.5 µM: [38]

COc1cc(C(=O)C/C(CCCC(=O)Nc2ccccc2[N+](=O)[O-])=N/NC(=O)c2cc3ccccc3cc2O)ccc1O
> 84.7 µM: [10]
82 µM: [51]
50.2 µM: [22]
> 83.7 µM: [42]
> 95 µM: [7]
> 74.3 µM: [13]
> 91.1 µM: [19]
> 65.4 µM: [20]
77 µM: [25]
98.3 µM: [4]
53.2 µM: [52]
> 31.6 µM: [6]
63.2 µM: [55]
95.7 µM: [57]
> 100 µM: [1] | [2] | [3] | [5] | [12] | [58] | [59] | [15] | [16] | [17] | [18] | [24] | [26] | [27] | [28] | [29] | [30] | [31] | [32] | [33] | [34] | [35] | [36] | [37] | [38] | [39] | [40] | [41] | [43] | [44] | [45] | [46] | [48] | [49] | [50] | [53] | [54]
43.6 µM: [9]
51.3 µM: [14]
82.5 µM: [56]
> 76.2 µM: [11]
